Several values for one entry are separate records, joined by “and”; a condition that tells them apart may be missing. Identical values can stand only once.
Assays:
[1] = Bioconcentration factors (BCF) of PFAS in zebrafish larvae; conditions: zebrafish (Danio rerio), whole larvae, other: immersion in exposure medium, 5 µM
In short: (§1)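 Zebrafish embryos collected within 1 h post-spawning were exposed individually to each PFAS in facility water with DMSO controls, medium renewed every 24 h from 24 to 96 hpf. Live hatched larvae collected at 120 hpf, wet-weighed, extracted with dichloromethane/methanol and analysed by UHPLC–high-resolution MS against mass-labelled standards.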

zebrafish larvae [2] = assay: as above; conditions: zebrafish larvae; for BCF 0.5µM: 0.5 µM exposure; for BCF 0.5µM / BCF 5µM: 120 hpf, three replicates; for BCF 5µM: 5 µM exposure
In short: as §1

zebrafish embryos = conditions: for pericardial oedemata, Mean / spinal curvature, Mean / tail dysplasia, Mean: 5μM through 120 hpf, malformation rate; for Mortality (%): 5 µM, exposure through 120 hpf
[3] = molecular target: liver fatty acid binding protein (L-FABP); parameters: method as in Yang et al. 2020; conditions: ref Yang et al. 2020, cited from earlier work; for Kd: read-out: Kd (μM), L-FABP binding affinity
zebrafish larvae [4] = assay: Identification of taurine conjugates by the DIPIC-Frag method in zebrafish larvae; format: in vivo, Danio rerio; conditions: among 74 PFAS
Text: To identify the taurine conjugates in zebrafish larvae exposed to PFAS, we used the data-independent precursor isolation and characteristic fragment (DIPIC-Frag) method developed in previous studies ([Peng et al. 2015], [2016]) to enhance the coverage inspired by the detection of the characteristic fragment from taurine conjugates ( [taurine-H]^− , m/z 124.0063). Then, the taurine fragment peak was extracted from each AIF window across all 243 raw MS data. Once the taurine fragment peak was detected, corresponding precursor ions were identified from the same window and sample by aligning their chromatographic peaks. The precursor ions were further confirmed by their co-occurrences with the taurine fragment across samples. Once precursor ions were identified, the compound formulas and structures were predicted by interpreting high-resolution MS and MS/MS spectra, as mentioned above.

zebrafish larvae [5] = assay: Nontargeted analysis of PFAS metabolites in zebrafish larvae (high-resolution MS)
Description: Zebrafish embryos were collected immediately after spawning, within 1 h, and subsequently transferred to 24-well plates with 1mL of facility water ( 0.036g sea salt, 0.15g sodium bicarbonate in 2L of reverse osmosis water). […] Three well replicates on the same plate were conducted for each concentration of individual chemical. […] Seven batches of experiments were performed to test all 74 PFAS. DMSO controls were incorporated in each batch of exposure experiments. Three replicates were performed for each treatment group, and 20 embryos were used for each replicate. […] For daily replenishment, 2.5mL of old exposure medium were replaced with freshly prepared medium every 24 h from 24 to 96 h post fertilization (hpf). Hatched or dead embryo numbers were recorded every 24 hpf, after which dead embryos were discarded from the growth media. Dead embryos or unhatched embryos were not used for PFAS measurement because the metabolism of PFAS might have been impacted. Zebrafish larvae collection occurred at 120 hpf. First, the larvae were anesthetized by cooling the plate in ice water (0–4°C) for ∼20 min . Then 8–15 larvae in each well were transferred into 1.5-mL tubes. Exposure media was carefully removed, and then the larvae were weighed (wet weight) after blotting excess water with a paper towel. […] Samples were stored at −80 °C until further chemical analysis was performed. Survival rate and hatching rate were calculated by summarizing all the documented data from the whole treatment duration. […] The exposure experiment of PFOSA was repeated using the same procedure as described above.
Each sample was spiked with 2μL of 0.2μg/mL mass-labeled PFAS mixture. Following this, 500μL of dichloromethane/methanol (2:1, vol/vol) was added to each sample for PFAS extraction. Larvae were then homogenized via ultrasonic probe, followed by 30 min of shaking and 30 min of sonication. Each sample was centrifuged at 14,000×g for 5 min, after which the supernatant was transferred to new tubes. Extraction was repeated once and the two supernatants were combined, evaporated under nitrogen flow, and reconstituted in 200μL of methanol for MS analysis.
Three microliters of each zebrafish extract was applied to a C18 column ( 1.5μm; 2.1mm×50mm; Thermo Scientific) and analyzed using a Vanquish ultra-HPLC system (Thermo Fisher Scientific) coupled to a Q Exactive high-resolution mass spectrometer (Thermo Fisher Scientific). The sampler and column compartments were maintained at 4°C and 40°C, respectively. The aqueous mobile phase solution (A) consisted of water, whereas the organic mobile phase solution (B) consisted of acetonitrile. […] MS data was acquired in full scan mode (100–1000 m/z, 70,000 mass resolution, 3×10^6 maximum ions collected per 100 ms), and tandem MS (MS/MS) data was recorded by all-ion fragmentation (AIF) mode. Negative and positive ion modes were carried out simultaneously at a 10-min method duration. […] An overview of the analyses conducted on the various PFAS is available in Table S2.
Nontargeted data analysis was accomplished with R scripts that are available on Github (https://github.com/huiUofT/PFASmetabolite). […] The peak features were matched across samples with a mass tolerance of 2.5 ppm and a RT window of 20 s, after RT adjustment. The ratio of abundances of each feature in treatment groups relative to the control group (DMSO) was calculated. The p -values of the difference between two groups were determined by student’s t -tests.

soil microcosms = tested on: soil microcosms; parameters: method as in Mejia-Avendaño et al. 2016; conditions: ref Mejia-Avendaño et al. 2016; cited from earlier work

| SMILES | concentration at 120 hpf [1] | BCF 0.5µM (zebrafish larvae [2]) | BCF 5µM (zebrafish larvae [2]) | pericardial oedemata, Mean (zebrafish embryos) | spinal curvature, Mean (zebrafish embryos) | tail dysplasia, Mean (zebrafish embryos) | Mortality (%) (zebrafish embryos) | Kd [3] | BCF at 0.5μM compared with 5μM (zebrafish larvae [2]) | Taurine conjugates detected (zebrafish larvae [4]) | Peak intensity of PFCA in zebrafish embryos directly exposed to the PFCA (zebrafish larvae [5]; 5μM through 120 hpf, single replicates, listed as PFBA) | Profile of metabolites (%): Alcohol (zebrafish larvae [5]; zebrafish larvae, Figure 5B) | Peak intensity: Alcohol (parent FTOH) (zebrafish larvae [5]; zebrafish larvae, single replicates, Figure 5A) | Metabolite peak features detected (zebrafish larvae [5]; zebrafish larvae exposed to 5μM) | L-FABP ligand [3] | Half-life, biodegradation by soil microcosms (soil microcosms) |
| --- | --- | --- | --- | --- | --- | --- | --- | --- | --- | --- | --- | --- | --- | --- | --- | --- |
| O=C(O)C(F)(F)C(F)(F)C(F)(F)C(F)(F)C(F)(F)C(F)(F)C(F)(F)F [compound 74, Perfluorooctanoic acid] | 76 ± 1.6 µM | 31.5419 L/kg | 17 ± 3.2 L/kg | 0.00% | 0.00% | 0.00% | 4.4% | 18.7 µM |  |  |  |  |  |  |  |  |
| O=C(O)CCC(F)(F)C(F)(F)C(F)(F)C(F)(F)C(F)(F)F [compound 14, 2H,2H,3H,3H-Perfluorooctanoic acid] |  | 6.7299 L/kg | 8.7 ± 2.1 L/kg | 0.00% | 0.00% | 1.11% | 1.1% | 158 µM | comparable or even higher BCFs at 5μM | taurine conjugates were detected |  |  |  |  |  |  |
| O=C(O)C(F)(F)C(F)(F)C(F)(F)F [compound 12, Perfluorobutanoic acid] | 3.1 ± 0.88 µM | 2.559 L/kg | 1.0 ± 0.28 L/kg | 1.11% | 0.00% | 0.00% | 4.4% |  |  |  | 3728507 and 3082077 and 5690847 |  |  |  |  |  |
| OCCCCC(F)(F)C(F)(F)C(F)(F)C(F)(F)F [compound 40, 4:4 Fluorotelomer alcohol] |  |  |  | 0.00% | 0.00% | 0.00% | 0% |  |  | taurine conjugates were detected |  | 0.00% | 0 |  |  |  |
| C[N+](C)(C)CCCNS(=O)(=O)C(F)(F)C(F)(F)C(F)(F)C(F)(F)C(F)(F)C(F)(F)C(F)(F)C(F)(F)F [compound 5, Perfluorooctanesulfonamido ammonium iodide] |  | 48.14 L/kg | 56 ± 16 L/kg | 0.00% | 1.11% | 0.00% | 2.2% |  | comparable or even higher BCFs at 5μM |  |  |  |  | 74 | not identified as L-FABP ligands | 142 days |

Reference: publication PMC8294803, “A Roadmap to the Structure-Related Metabolism Pathways of Per- and Polyfluoroalkyl Substances in the Early Life Stages of Zebrafish (Danio rerio)” (Environmental Health Perspectives, 2021)
